According to patent publication US6335443B1, “Chemical synthesis of exochelins” (Keystone Biomedical, Inc., priority 1998, dated 2002):

Target: holo-transferrin (92% iron-saturated human transferrin) (Homo sapiens, UniProt P02787)
Experiment: Capacity to remove iron from holo-transferrin (92% iron-saturated human transferrin)
Assay type: biochemical
Conditions: Fe3+:desferri-Exochelin 10:1
Experimental: A. 40% Iron-Saturated Human Transferrin. To assess the capacity of the 3 different desferri-Exochelins to remove iron from 40% iron-saturated human transferrin, each of them was incubated for 1, 3, and 24 hours with 40% iron-saturated transferrin such that the ratio of Fe^3+: desferri-Exochelin equaled 10:1. The incubation was carried out in PBS, pH 7.4. Afterwards, the Exochelin and transferrin were separated from each other by centrifugation through a 10,000 dalton cut-off filter. The transferrin (mass 76,000 daltons) was completely excluded by this filter whereas 85% of the Exochelin (mass<1,000) was recovered in the filtrate. To determine the total amount of exochelin recovered, the exochelin in the filtrate was saturated with a 20:1 molar excess of ferric ammonium citrate and subjected to reverse-phase HPLC as described above. To determine the amount of iron-saturated Exochelin in the filtrate at each time point, the filtrate was subjected to reverse-phase HPLC without the addition of iron. The % iron-saturation was calculated as follows: [formula]
B. Holo-Transferrin (92% Iron-Saturated Human Transferrin). To assess the capacity of the 3 different desferri-Exochelins to remove iron from holo-transferrin (92% iron-saturated human transferring, each of them was incubated for 1, 3, and 24 h with 92% iron-saturated transferrin such that the ratio of Fe^3+: desferri-Exochelin equaled 10:1, as in the aforementioned study with 40% iron-saturated transferrin. The % iron-saturation of the Exochelins was assayed as above.

[1] = listed as Synthetic Desferri-Exochelin 7728M(R)
[2] = listed as Synthetic Desferri-Exochelin 772SM(S)

holo-transferrin (92% iron-saturated human transferrin), sequence (P02787 20-698): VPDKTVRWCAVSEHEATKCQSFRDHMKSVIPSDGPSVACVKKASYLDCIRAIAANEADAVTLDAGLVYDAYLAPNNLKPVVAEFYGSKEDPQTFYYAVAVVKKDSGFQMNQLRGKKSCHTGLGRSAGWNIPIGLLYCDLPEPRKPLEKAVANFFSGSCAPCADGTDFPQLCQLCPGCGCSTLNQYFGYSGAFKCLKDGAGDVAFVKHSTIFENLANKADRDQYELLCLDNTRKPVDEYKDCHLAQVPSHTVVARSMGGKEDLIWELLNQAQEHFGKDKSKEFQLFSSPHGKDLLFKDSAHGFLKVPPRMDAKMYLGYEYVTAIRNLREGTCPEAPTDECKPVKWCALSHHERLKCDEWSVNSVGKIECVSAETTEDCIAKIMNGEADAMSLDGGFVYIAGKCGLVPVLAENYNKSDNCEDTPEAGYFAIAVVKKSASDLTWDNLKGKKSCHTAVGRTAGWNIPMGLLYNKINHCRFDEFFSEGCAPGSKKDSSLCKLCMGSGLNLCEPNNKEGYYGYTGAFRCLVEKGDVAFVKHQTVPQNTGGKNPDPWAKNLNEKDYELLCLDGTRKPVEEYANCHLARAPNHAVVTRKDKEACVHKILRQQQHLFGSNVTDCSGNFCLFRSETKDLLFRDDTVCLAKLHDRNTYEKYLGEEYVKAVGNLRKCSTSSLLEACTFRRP

SMILES	Iron-Saturation 0 h [1] [%]	Iron-Saturation 1 h [1] [%]	Iron-Saturation 3 h [1] [%]	Iron-Saturation 24 h [1] [%]	Iron-Saturation 24 h (listed as synthetic desferri-exochelin 772SM(R)) [%]	Iron-Saturation 0 h [2] [%]	Iron-Saturation 1 h [2] [%]	Iron-Saturation 3 h [2] [%]	Iron-Saturation 24 h [2] [%]	Iron-Saturation 24 h (listed as synthetic desferri-exochelin 772SM(S)) [%]
COC(=O)CCCCCC(=O)N(O)CCCCC(NC(=O)C1COC(c2ccccc2O)=N1)C(=O)OC(C)CC(=O)NC1CCCCN(O)C1=O [Synthetic 772SM(R), Exochelin 772SM(R)]	1.1	13.6	31.5	60.0	60.0					
COC(=O)CCCCCC(=O)N(O)CCCCC(NC(=O)C1COC(c2ccccc2O)=N1)C(=O)OC(C)CC(=O)NC1CCCCN(O)C1=O [Synthetic 772SM(S), Exochelin 772SM(S)]						1.0	18.1	15.5	47.2	47.2
